Source: ChEMBL document CHEMBL1201862, “PubChem BioAssay data set” (2004)
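Following 48 hours of exposure in 96-well plates, responses at five concentrations were used to interpolate endpoints linearly. GI50 is the concentration that inhibits growth by half.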 Activity calls are given as the source filed them. No stated cut-off is given here; in the data, active = GI50 up to about 1.1 µM and inactive = higher.

Key:
Experiment in all cases: NCI tumour cell line growth inhibition, 48 h
[1] = tested on: A549
[2] = tested on: ACHN
[3] = tested on: BT-549
[4] = tested on: EKVX
[5] = tested on: HL-60
[6] = tested on: HT-29
[7] = tested on: OVCAR-5
[8] = tested on: OVCAR-8
[9] = tested on: RXF 393
[10] = tested on: SK-OV-3
[11] = tested on: SNB-75
[12] = tested on: SW-620
[13] = tested on: UACC-257
[14] = tested on: HOP-62
[15] = tested on: MDA-MB-231
[16] = tested on: RPMI-8226
[17] = tested on: SK-MEL-28
[18] = tested on: SK-MEL-2
[19] = tested on: SN12C
[20] = tested on: T47D

Measured: GI50

Cc1cc2cc3ccccc3cc2c(=O)[nH]1
inactive: [1] > 10 µM | [2] > 10 µM | [3] > 10 µM | [4] > 10 µM | [5] > 10 µM | [6] > 10 µM | [7] > 10 µM | [8] > 10 µM | [9] > 10 µM | [10] > 10 µM | [11] > 10 µM | [12] > 10 µM | [13] > 10 µM

CN1CCN(CCn2c3c4ccccc4ccc3c3oc(=O)c4ccccc4c32)CC1
inactive: [1] 3.97 µM | [2] 3.05 µM | [4] 12.7 µM | [5] 2.15 µM | [14] 2.07 µM | [6] 1.36 µM | [15] 1.8 µM | [7] 5.74 µM | [8] 1.52 µM | [16] 2.61 µM | [17] 4.94 µM | [18] 13.5 µM | [10] 12.7 µM | [19] 1.51 µM | [11] 4.37 µM | [12] 1.86 µM | [20] > 10 µM | [13] 1.56 µM

Cc1cc2c(=O)cc(-c3ccncc3)oc2c(C(=O)O)c1C
inactive: [1] > 100 µM | [2] > 100 µM | [4] > 100 µM | [5] > 100 µM | [14] > 100 µM | [6] > 100 µM | [7] > 100 µM | [8] > 100 µM | [16] > 100 µM | [9] > 100 µM | [17] > 100 µM | [18] > 100 µM | [10] > 100 µM | [19] > 100 µM | [11] > 100 µM | [12] > 100 µM | [13] > 100 µM

NNC(=O)N/N=C1\CNC(=O)C(=O)C1c1nc2ccccc2s1 (stereo not drawn)
inactive: [1] > 100 µM | [2] > 100 µM | [4] > 100 µM | [5] > 100 µM | [14] > 100 µM | [6] > 100 µM | [7] > 100 µM | [8] > 100 µM | [16] > 100 µM | [9] > 100 µM | [17] > 100 µM | [18] > 100 µM | [10] > 100 µM | [19] > 100 µM | [11] > 100 µM | [12] > 100 µM | [13] > 100 µM

Cc1c(C(=O)C/C(=N/NC(=O)C[n+]2ccccc2)C(=O)Nc2ccccc2)[n+]([O-])c2ccccc2[n+]1[O-]
inactive: [1] > 100 µM | [2] > 100 µM | [4] > 100 µM | [5] > 100 µM | [14] > 100 µM | [6] > 100 µM | [7] > 100 µM | [8] > 100 µM | [16] > 100 µM | [9] > 100 µM | [17] > 100 µM | [18] > 100 µM | [10] > 100 µM | [19] > 100 µM | [11] > 100 µM | [12] > 100 µM | [13] > 100 µM

CCC(=N\NC(N)=S)/C(C)=N/O
inactive: [1] > 100 µM | [2] > 100 µM | [4] > 100 µM | [14] > 100 µM | [6] > 100 µM | [15] > 100 µM | [7] > 100 µM | [8] > 100 µM | [16] > 100 µM | [9] > 100 µM | [17] > 100 µM | [18] > 100 µM | [10] > 100 µM | [19] > 100 µM | [12] > 100 µM | [20] > 100 µM | [13] > 100 µM

N#Cc1ccc(Nc2cnc3ccc(N)cc3n2)cc1
inactive: [1] > 100 µM | [2] > 100 µM | [4] > 100 µM | [5] > 100 µM | [14] > 100 µM | [6] > 100 µM | [7] > 100 µM | [8] > 100 µM | [16] > 100 µM | [9] > 100 µM | [17] > 100 µM | [18] > 100 µM | [10] > 100 µM | [19] > 100 µM | [11] > 100 µM | [12] > 100 µM | [13] > 100 µM

OC1CN(OC/C=C/c2ccccc2)CC(O)C1O (stereo not drawn)
inactive: [1] > 100 µM | [2] > 100 µM | [4] > 100 µM | [5] > 100 µM | [14] > 100 µM | [6] > 100 µM | [7] > 100 µM | [8] > 100 µM | [16] 44.3 µM | [9] > 100 µM | [17] > 100 µM | [18] > 100 µM | [10] > 100 µM | [19] > 100 µM | [11] > 100 µM | [12] 36.1 µM | [13] > 100 µM

C=C1CC(CCCl)(c2ccccc2)OC1=O (stereo not drawn)
inactive: [1] > 71.9 µM | [2] 32.5 µM | [4] > 44 µM | [5] 19.8 µM | [14] > 100 µM | [6] 33 µM | [7] > 100 µM | [8] 41.1 µM | [16] 15.8 µM | [9] 13.3 µM | [17] 16.2 µM | [18] > 57.5 µM | [10] > 100 µM | [19] 31.5 µM | [11] 22.4 µM | [12] 20.2 µM | [13] 44.2 µM

COc1c(OC2OC(CO)C(O)C(O)C2O)cc2c(c1OC)-c1ccc(OC)c(=O)cc1C(NC(C)=O)CC2 (stereo not drawn)
inactive: [1] > 100 µM | [2] > 100 µM | [4] > 100 µM | [5] > 100 µM | [14] > 100 µM | [6] > 100 µM | [7] > 100 µM | [8] > 100 µM | [16] > 100 µM | [9] > 83.6 µM | [17] 61 µM | [18] 57.8 µM | [10] > 100 µM | [19] > 100 µM | [11] 25.3 µM | [12] > 100 µM | [13] > 100 µM

S=C(S)NCNC(=S)S
inactive: [1] > 100 µM | [2] > 100 µM | [4] > 100 µM | [5] > 100 µM | [14] > 100 µM | [6] > 100 µM | [15] > 100 µM | [7] > 100 µM | [8] > 100 µM | [16] > 100 µM | [9] > 100 µM | [17] > 100 µM | [10] > 100 µM | [19] > 100 µM | [11] > 100 µM | [12] > 100 µM | [20] > 100 µM | [13] > 100 µM

c1ccc([P+](Cc2ccc(C[P+](c3ccccc3)(c3ccccc3)c3ccccc3)cc2)(c2ccccc2)c2ccccc2)cc1
inactive: [1] 45.7 µM | [2] > 100 µM | [4] 21.8 µM | [5] 55.1 µM | [14] 69.5 µM | [6] 25 µM | [15] 61.8 µM | [7] 88.5 µM | [8] 45.8 µM | [16] 43 µM | [9] 61.4 µM | [17] 67.9 µM | [10] > 100 µM | [19] 67.5 µM | [11] 29.6 µM | [12] 72.4 µM | [20] > 100 µM | [13] 37.1 µM
